Results from PubChem BioAssay (NCI).
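Test compounds were applied to cells in 96-well plates for 48 hours at 5 doses. Here, GI50 denotes the concentration required for 50% inhibition of growth. TGI denotes the concentration required for complete inhibition of growth.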

How the values were obtained:
Test in all cases: inhibition of tumour cell growth, NCI panel, 48 h
[1] = test system: HOP-62 NSCLC
[2] = test system: SK-MEL-5 melanoma
[3] = test system: KM12 colon
[4] = test system: SR leukemia
[5] = test system: U251 CNS
[6] = test system: K-562 leukemia
[7] = test system: OVCAR-5 ovarian
[8] = test system: HL-60(TB) leukemia

C=CCN1CC2CN=NC2(C#N)C1 (centres undefined)
TGI [1]: > 100 µM | TGI [2]: > 100 µM | TGI [3]: > 100 µM | TGI [4]: > 100 µM | TGI [5]: > 100 µM | TGI [6]: > 100 µM | TGI [7]: > 100 µM | TGI [8]: > 100 µM

O=C1CCC2=C(CCC2)N1CCc1ccc2c(c1)OCO2
TGI [1]: > 100 µM | TGI [2]: > 100 µM | TGI [3]: > 100 µM | TGI [4]: > 100 µM | TGI [5]: > 100 µM | TGI [6]: > 100 µM | TGI [7]: > 100 µM | TGI [8]: 55.7 µM

C=C(C)CC1=C(C(=S)NCCO[Si](C)(C)C(C)(C)C)C(OCC)(OCC)C1=O
TGI [1]: 34.3 µM | TGI [2]: 51 µM | TGI [3]: 45.9 µM | TGI [5]: 63 µM | TGI [7]: 28.5 µM | TGI [8]: > 100 µM

CC(/C=N/NC1=NCCCCN1)=N\NC1=NCCCCN1
TGI [1]: > 100 µM | TGI [2]: > 100 µM | TGI [3]: > 100 µM | TGI [4]: > 100 µM | TGI [5]: > 100 µM | TGI [6]: > 100 µM | TGI [7]: > 100 µM

N=C(N)n1[nH]c2c(c1=O)CCC2
TGI [1]: > 100 µM | TGI [2]: > 100 µM | TGI [4]: > 100 µM | TGI [5]: > 100 µM | TGI [6]: > 100 µM | TGI [7]: > 100 µM | TGI [8]: > 100 µM

CCOC(=O)/C=C(/C(=O)OCC)n1c(=O)c(C)cn(C2CC(N=[N+]=[N-])C(CO)O2)c1=O (centres undefined)
TGI [1]: > 100 µM | TGI [3]: > 100 µM | TGI [5]: 37.4 µM | TGI [6]: > 100 µM | TGI [7]: > 100 µM | TGI [8]: 5.18 µM

Cc1ccnc(NC(=S)Nc2ccccc2Cl)c1
TGI [1]: > 100 µM | TGI [2]: > 100 µM | TGI [3]: > 100 µM | TGI [4]: > 100 µM | TGI [5]: > 100 µM | TGI [6]: > 100 µM | TGI [7]: > 100 µM | TGI [8]: > 100 µM

O=C(NCCO)c1c(O)c2ccccc2[nH]c1=O
TGI [1]: > 100 µM | TGI [2]: > 100 µM | TGI [3]: > 100 µM | TGI [4]: > 100 µM | TGI [5]: > 100 µM | TGI [6]: > 100 µM | TGI [7]: > 100 µM | TGI [8]: > 100 µM

CC(O)(c1ccccc1)c1nccc2ccccc12 (centres undefined)
TGI [1]: > 100 µM | TGI [2]: > 100 µM | TGI [3]: > 100 µM | TGI [5]: > 100 µM | TGI [6]: > 100 µM | TGI [7]: > 100 µM | TGI [8]: > 100 µM

CCCCNC(=S)/N=C/c1c(O)c2ccccc2oc1=O
TGI [1]: > 100 µM | TGI [2]: > 100 µM | TGI [3]: > 100 µM | TGI [5]: > 100 µM | TGI [7]: > 100 µM

C=CCC1NCCC2=C1C(S(=O)(=O)c1ccc(C)cc1)c1ccccc12 (centres undefined)
TGI [1]: 28.2 µM | TGI [2]: 27.6 µM | TGI [3]: 22.6 µM | TGI [4]: 38.4 µM | TGI [5]: 24 µM | TGI [6]: 63.4 µM | TGI [7]: 33.2 µM

O=[N+]([O-])c1cccc2nc3ccccc3c(NCCC[N+]3([O-])CCCCC3)c12
TGI [1]: 3.55 µM | TGI [2]: 1.35 µM | TGI [3]: 2.07 µM | TGI [5]: 1.24 µM | TGI [6]: > 100 µM | TGI [7]: 2.36 µM | TGI [8]: 8.44 µM

Cc1nnc(N)nc1/C=C\c1cccs1
TGI [1]: 38.5 µM | TGI [3]: 31.5 µM | TGI [4]: > 100 µM | TGI [5]: > 100 µM | TGI [6]: 59.7 µM | TGI [7]: 68.3 µM | TGI [8]: 31.7 µM

O=C1C[C@H](c2ccccc2)C2(C(=O)c3ccccc3C2=O)[C@@H](c2ccccc2)C1
TGI [1]: > 100 µM | TGI [2]: 31 µM | TGI [4]: > 100 µM | TGI [5]: > 100 µM | TGI [6]: > 100 µM | TGI [7]: > 100 µM | TGI [8]: > 100 µM

CC1CCC2c3c([nH]c4ccccc34)C3C(=O)N(C4CCCCC4)C(=O)C3C2C1 (centres undefined)
TGI [1]: 32.7 µM | TGI [2]: 36.1 µM | TGI [4]: > 100 µM | TGI [5]: 25.3 µM | TGI [6]: 47.2 µM | TGI [7]: > 100 µM | TGI [8]: > 100 µM

Cc1cc2nc3n(c2cc1C)C(c1c(F)cccc1F)SC3 (centres undefined)
TGI [1]: 72 µM | TGI [2]: 28.2 µM | TGI [3]: > 10 µM | TGI [4]: 42.9 µM | TGI [5]: 32.3 µM | TGI [6]: 63.9 µM | TGI [7]: 43 µM

Cc1cccc2c(N)c3cccc(C(=O)NCC[N+](C)(C)Cc4sc(N5CCOCC5)nc4[N+](=O)[O-])c3nc12
TGI [1]: 7.77 µM | TGI [2]: > 100 µM | TGI [3]: 17.6 µM | TGI [5]: > 100 µM | TGI [6]: > 100 µM | TGI [7]: 16.4 µM

Oc1c(I)cc(I)cc1CNCCCN(Cc1ccccn1)Cc1ccccn1
GI50 [1]: 1.02 µM | TGI [1]: 2.35 µM | GI50 [2]: 0.886 µM | TGI [2]: 1.59 µM | GI50 [3]: 0.986 µM | TGI [3]: 1.97 µM | GI50 [5]: 1.11 µM | TGI [5]: 2.68 µM | GI50 [6]: 1.71 µM | TGI [6]: 50 µM | GI50 [7]: 0.953 µM | TGI [7]: 2.11 µM | GI50 [8]: 1.08 µM | TGI [8]: 2.51 µM

O=C(NN=C1CCCCC1)Nc1ccccc1Cl
TGI [2]: > 100 µM | TGI [3]: > 100 µM | TGI [4]: > 100 µM | TGI [5]: > 100 µM | TGI [6]: > 100 µM | TGI [7]: > 100 µM | TGI [8]: > 100 µM
